# Measured values reported in patent US11484607B2, “PSMA-targeted NIR dyes and their uses” (On Target Laboratories, LLC, priority 2015, dated 2022).
# pKd: −log10 of the molar value.
# Target: T1, PSMA (Homo sapiens, UniProt Q04609)
# T1 construct: host or cells: 22Rv1 human prostate cancer cells
# Experiment: Relative binding affinity of DUPA-NIR conjugates with respect to DUPA-FITC on 22Rv1 cells, flow cytometry
# Conditions: for pKd: 1 h at 37° C., 100 nM DUPA-FITC; for affinity for PSMA (in words): in vitro binding affinity data
# Protocol: (§1) FIG. 3—Relative binding affinities of DUPA-NIR conjugates 1-9 with respect to DUPA-FITC (14). PSMA-positive 22Rv1 human prostate cancer cells were incubated for 1 h at 37° C. in the presence of 100 nM DUPA-FITC with increasing concentrations of DUPA-NIR conjugates. […] Cell bound fluorescence was assayed as using flow cytometry.
# as §1, with “6—Relative” for “3—Relative”, “with aromatic amino acids linkers” for “1-9”
# as §1, with “3 Relative” for “3—Relative”
# in vitro studies. […] PSMA-positive 22Rv1 human prostate cancer cells were incubated for 1 h at 37° C. in the presence of 100 nM DUPA-FITC with increasing concentrations of DUPA-NIR conjugates. […] Cell bound fluorescence was assayed as using flow cytometry.
# PSMA-positive 22Rv1 human prostate cancer cells were incubated for 1 h at 37° C. in the presence of 100 nM DUPA-FITC with increasing concentrations of DUPA-NIR conjugates. […] Cell bound fluorescence was assayed as using flow cytometry.
# as §1, with “24: Relative” for “3—Relative”, “conjugates” for “conjugates 1-9”
# PSMA-positive 22Rv1 human prostate cancer cells were incubated for 1 h at 37° C. in the presence of 100 nM DUPA-FITC with increasing concentrations of DUPA-NIR conjugates. […] Cell bound fluorescence was assayed as using flow cytometry
# Cancer cells were incubated for 1 h at 37° C. in the presence of 100 nM DUPA-FITC with increasing concentrations of compound 15. […] Cell bound fluorescence was assayed as using flow cytometry.
# [1] = conjugates with variable length spacers
# [2] = conjugates with aromatic linkers
# [3] = Example 5, variably charged NIR dye
# T1 sequence (Q04609 whole entry): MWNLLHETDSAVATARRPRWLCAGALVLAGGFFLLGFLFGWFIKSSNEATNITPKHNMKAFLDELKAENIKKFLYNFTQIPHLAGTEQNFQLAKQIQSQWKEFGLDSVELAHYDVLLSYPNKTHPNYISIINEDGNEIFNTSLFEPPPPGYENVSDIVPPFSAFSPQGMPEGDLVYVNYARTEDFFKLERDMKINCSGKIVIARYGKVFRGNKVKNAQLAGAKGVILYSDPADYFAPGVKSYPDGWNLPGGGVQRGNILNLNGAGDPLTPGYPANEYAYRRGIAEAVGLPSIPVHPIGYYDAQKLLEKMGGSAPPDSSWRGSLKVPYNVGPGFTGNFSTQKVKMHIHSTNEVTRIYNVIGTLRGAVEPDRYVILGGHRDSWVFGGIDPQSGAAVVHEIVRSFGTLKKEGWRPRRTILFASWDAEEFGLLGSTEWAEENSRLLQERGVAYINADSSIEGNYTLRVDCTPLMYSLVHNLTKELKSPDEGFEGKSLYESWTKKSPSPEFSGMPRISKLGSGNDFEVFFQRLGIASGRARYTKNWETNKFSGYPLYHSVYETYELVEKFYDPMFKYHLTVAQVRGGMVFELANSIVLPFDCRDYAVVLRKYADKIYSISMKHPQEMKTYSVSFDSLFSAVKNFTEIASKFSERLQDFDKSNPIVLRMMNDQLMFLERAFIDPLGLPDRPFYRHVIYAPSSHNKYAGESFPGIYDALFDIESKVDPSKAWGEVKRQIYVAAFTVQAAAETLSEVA
pKd [1],affinity for PSMA (in words),SMILES,other results
7.91,very high affinity,CC1(C)C(/C=C/C2=C(Oc3ccc(C[C@H](NC(=O)CCCCCCCNC(=O)[C@H](Cc4ccccc4)NC(=O)CC[C@H](NC(=O)N[C@@H](CCC(=O)O)C(=O)O)C(=O)O)C(=O)O)cc3)C(=C/C=C3/N(CCCCS(=O)(=O)O)c4ccc(S(=O)(=O)O)cc4C3(C)C)/CCC2)=[N+](CCCCS(=O)(=O)[O-])c2ccc(S(=O)(=O)O)cc21 [Compound 5],
7.63,,CC1(C)C(/C=C/C2=C(Oc3ccc(C[C@H](NC(=O)[C@H](Cc4ccccc4)NC(=O)[C@H](Cc4ccccc4)NC(=O)CCCCCCCNC(=O)C[C@H](NC(=O)CC[C@H](NC(=O)N[C@@H](CCC(=O)O)C(=O)O)C(=O)O)C(=O)O)C(=O)O)cc3)C(=C/C=C3/N(CCCCS(=O)(=O)O)c4ccc(S(=O)(=O)O)cc4C3(C)C)/CCC2)=[N+](CCCCS(=O)(=O)[O-])c2ccc(S(=O)(=O)O)cc21 [Compound 8],
7.76,,CC1(C)C(/C=C/C2=C(Oc3ccc(C[C@H](NC(=O)CCCCCCCNC(=O)CCCCCCCNC(=O)CC[C@H](NC(=O)N[C@@H](CCC(=O)O)C(=O)O)C(=O)O)C(=O)O)cc3)C(=C/C=C3/N(CCCCS(=O)(=O)O)c4ccc(S(=O)(=O)O)cc4C3(C)C)/CCC2)=[N+](CCCCS(=O)(=O)[O-])c2ccc(S(=O)(=O)O)cc21 [Compound 9],

# Second part, the molecule before the results:
SMILES,pKd [1],affinity for PSMA (in words),other results
CC1(C)C(/C=C/C2=C(Oc3ccc(C[C@H](NC(=O)CC[C@H](NC(=O)N[C@@H](CCC(=O)O)C(=O)O)C(=O)O)C(=O)O)cc3)C(=C/C=C3/N(CCCCS(=O)(=O)O)c4ccc(S(=O)(=O)O)cc4C3(C)C)/CCC2)=[N+](CCCCS(=O)(=O)[O-])c2ccc(S(=O)(=O)O)cc21 [Compound 1],6.85,low affinity,
CC1(C)C(/C=C/C2=C(Oc3ccc(CCNC(=O)CC[C@H](NC(=O)N[C@@H](CCC(=O)O)C(=O)O)C(=O)O)cc3)C(=C/C=C3/N(CCCCS(=O)(=O)O)c4ccc(S(=O)(=O)O)cc4C3(C)C)/CCC2)=[N+](CCCCS(=O)(=O)[O-])c2ccc(S(=O)(=O)O)cc21 [Compound 2],6.95,low affinity,
CC1(C)C(/C=C/C2=C(Oc3ccc(C[C@H](NC(=O)C[C@H](NC(=O)CC[C@H](NC(=O)N[C@@H](CCC(=O)O)C(=O)O)C(=O)O)C(=O)O)C(=O)O)cc3)C(=C/C=C3/N(CCCCS(=O)(=O)O)c4ccc(S(=O)(=O)O)cc4C3(C)C)/CCC2)=[N+](CCCCS(=O)(=O)[O-])c2ccc(S(=O)(=O)O)cc21 [Compound 3],8.01,very high affinity,
CC1(C)C(/C=C/C2=C(SC[C@H](NC(=O)[C@H](Cc3ccccc3)NC(=O)[C@H](Cc3ccccc3)NC(=O)CCCCCCCNC(=O)CC[C@H](NC(=O)N[C@@H](CCC(=O)O)C(=O)O)C(=O)O)C(=O)O)C(=C/C=C3/N(CCCCS(=O)(=O)O)c4ccc(S(=O)(=O)O)cc4C3(C)C)/CCC2)=[N+](CCCCS(=O)(=O)[O-])c2ccc(S(=O)(=O)O)cc21 [Compound 27],,,pKd [2]: 7.65
CC1(C)C(/C=C/C2=C(Oc3ccc(C[C@H](NC(=O)[C@H](Cc4c[nH]cn4)NC(=O)CCCCCCCNC(=O)CC[C@H](NC(=O)N[C@@H](CCC(=O)O)C(=O)O)C(=O)O)C(=O)O)cc3)C(=C/C=C3/N(CCCCS(=O)(=O)O)c4ccc(S(=O)(=O)O)cc4C3(C)C)/CCC2)=[N+](CCCCS(=O)(=O)[O-])c2ccc(S(=O)(=O)O)cc21 [Compound 32],,,pKd [2]: 7.49
CC1(C)C(/C=C/C2=C(Oc3ccc(C[C@H](NC(=O)[C@H](Cc4c[nH]c5ccccc45)NC(=O)CCCCCCCNC(=O)CC[C@H](NC(=O)N[C@@H](CCC(=O)O)C(=O)O)C(=O)O)C(=O)O)cc3)C(=C/C=C3/N(CCCCS(=O)(=O)O)c4ccc(S(=O)(=O)O)cc4C3(C)C)/CCC2)=[N+](CCCCS(=O)(=O)[O-])c2ccc(S(=O)(=O)O)cc21 [Compound 33],,,pKd [2]: 7.80
CC1(C)C(/C=C/C2=C(Oc3ccc(C[C@H](NC(=O)CCCCCCCNC(=O)[C@H](Cc4ccccc4)NC(=O)[C@H](Cc4ccccc4)NC(=O)CCCCCCCNC(=O)CC[C@H](NC(=O)N[C@@H](CCC(=O)O)C(=O)O)C(=O)O)C(=O)O)cc3)C(=C/C=C3/N(CCCCS(=O)(=O)O)c4ccc(S(=O)(=O)O)cc4C3(C)C)/CCC2)=[N+](CCCCS(=O)(=O)[O-])c2ccc(S(=O)(=O)O)cc21 [Compound 34],,,pKd [2]: 7.46
CC1(C)C(/C=C/C2=C(Oc3ccc(C[C@H](NC(=O)[C@H](Cc4ccccc4)NC(=O)CCCCCCCNC(=O)CC[C@H](NC(=O)N[C@@H](CCC(=O)O)C(=O)O)C(=O)O)C(=O)O)cc3)C(=C/C=C3/N(CCCCS(=O)(=O)O)c4ccccc4C3(C)C)/CCC2)=[N+](CCCCS(=O)(=O)[O-])c2ccccc21 [Compound 54],,,pKd [3]: 8.59
CN1/C(=C/C=C2\CCCC(/C=C/C3=[N+](C)c4ccccc4C3(C)C)=C2Oc2ccc(C[C@H](NC(=O)[C@H](Cc3ccccc3)NC(=O)CCCCCCCNC(=O)CC[C@H](NC(=O)N[C@@H](CCC(=O)O)C(=O)O)C(=O)O)C(=O)O)cc2)C(C)(C)c2ccccc21 [Compound 55],,very high affinity,pKd [3]: 8.14
CN1/C(=C/C=C2\CCCC(/C=C/C3=[N+](C)c4ccc(S(=O)(=O)[O-])cc4C3(C)C)=C2Oc2ccc(C[C@H](NC(=O)[C@H](Cc3ccccc3)NC(=O)CCCCCCCNC(=O)CC[C@H](NC(=O)N[C@@H](CCC(=O)O)C(=O)O)C(=O)O)C(=O)O)cc2)C(C)(C)c2cc(S(=O)(=O)O)ccc21 [Compound 56],,very high affinity,pKd [3]: 8.43
CC1(C)C(/C=C/C2=C(Oc3ccc(C[C@H](NC(=O)[C@H](Cc4ccccc4)NC(=O)CCCCCCCNC(=O)CC[C@H](NC(=O)N[C@@H](CCC(=O)O)C(=O)O)C(=O)O)C(=O)O)cc3)C(=C/C=C3/N(CCC[N+](C)(C)C)c4ccccc4C3(C)C)/CCC2)=[N+](CCC[N+](C)(C)C)c2ccccc21 [Compound 59],,,pKd [3]: 7.22
CC1(C)C(/C=C/C2=C(Oc3ccc(C[C@H](NC(=O)[C@H](Cc4ccccc4)NC(=O)CCCCCCCNC(=O)CC[C@H](NC(=O)N[C@@H](CCC(=O)O)C(=O)O)C(=O)O)C(=O)O)cc3)C(=C/C=C3/N(CCC[N+](C)(C)C)c4ccc(S(=O)(=O)O)cc4C3(C)C)/CCC2)=[N+](CCC[N+](C)(C)C)c2ccc(S(=O)(=O)O)cc21 [Compound 60],,,pKd [3]: 8.27
CC1(C)C(=CC=C2CCOC(C=CC3=[N+](CCCCS(=O)(=O)[O-])c4ccc(S(=O)(=O)O)cc4C3(C)C)=C2c2ccc(C(=O)NCCNC(=O)C(Cc3ccccc3)NC(=O)CCCCCCCNC(=O)CCC(NC(=O)NC(CCC(=O)O)C(=O)O)C(=O)O)cc2)N(CCCCS(=O)(=O)O)c2ccc(S(=O)(=O)O)cc21 (stereo not drawn) [Compound 62],,low affinity,
CC1(C)C(=CC=C2CCCC(C=CC3=[N+](CCCCS(=O)(=O)[O-])c4ccccc4C3(C)C)=C2Oc2ccc(CC(NC(=O)C(CCCNC(=N)N)NC(=O)C(Cc3ccccc3)NC(=O)CCCCCCCNC(=O)CCC(NC(=O)NC(CCC(=O)O)C(=O)O)C(=O)O)C(=O)O)cc2)N(CCCCS(=O)(=O)O)c2ccccc21 (stereo not drawn) [Compound 65],,low affinity,
CC1(C)C(=CC=C2CCCC(C=CC3=[N+](CCCCS(=O)(=O)[O-])c4ccccc4C3(C)C)=C2Oc2ccc(CC(NC(=O)C(CCCNC(=N)N)NC(=O)C(CCCNC(=N)N)NC(=O)CCCCCCCNC(=O)CCC(NC(=O)NC(CCC(=O)O)C(=O)O)C(=O)O)C(=O)O)cc2)N(CCCCS(=O)(=O)O)c2ccccc21 (stereo not drawn) [Compound 66],,low affinity,
